# Source: the OligoGym collection
# Several values for one entry are separate records, joined by “and”; a condition that tells them apart may be missing. Equal entries are not always repeated. After the bases stand the sugars from the 5' end (letter, count) and the backbone: PS all phosphorothioate, else s phosphorothioate and o phosphodiester by linkage. Methylation of C is not given here. e = 2'-O-(2-methoxyethyl) (MOE); k = constrained ethyl (cEt); d = 2'-deoxy (DNA)
# Biological target: IRF4
# Details: ASO
sequence,measurement,setting,value
"GGGATTATATACTGGT (sugars kddddddddddkekek, PS)",target mRNA inhibition,"MM.1R, 1 µM",34%
"ACTGCTTGAGGTTTTC (sugars kkkdddddddddkeke, PS)",target mRNA inhibition,"MM.1R, 1 µM",38%
"AGCACATGTCAACAGT (sugars k3 d10 k3, PS)",target mRNA inhibition,"SK-MEL-28, 4 µM",31%
"GTGTGGCTGATCCGGG (sugars k3 d10 k3, PS)",target mRNA inhibition,"SK-MEL-28, 4 µM",27%
"ACCCAGAAGTACGAGC (sugars k3 d10 k3, PS)",target mRNA inhibition,"SK-MEL-28, 4 µM",21%
"TCGCGCAAAGGGCAAG (sugars k3 d10 k3, PS)",target mRNA inhibition,"MM.1R, 1 µM",-4%
"AACCTTAAGCTATTTG (sugars k3 d10 k3, PS)",target mRNA inhibition,"MM.1R, 0.0625 µM",-10%
same,target mRNA inhibition,"MM.1R, 0.25 µM",-5%
same,target mRNA inhibition,"MM.1R, 4 µM",48%
"CCATTGGAGGAGGGTT (sugars k3 d10 k3, PS)",target mRNA inhibition,"SK-MEL-28, 4 µM",32%
"CGGAGCTTCCCGTTGC (sugars k3 d10 k3, PS)",target mRNA inhibition,"SK-MEL-28, 4 µM",35%
"AGATGTATACATCACT (sugars k3 d10 k3, PS)",target mRNA inhibition,"SK-MEL-28, 4 µM",76% and 71%
"CTTTATGCGAAGAATT (sugars k3 d10 k3, PS)",target mRNA inhibition,"SK-MEL-28, 4 µM",30%
"GCTGAACTGTGTAATG (sugars k3 d10 k3, PS)",target mRNA inhibition,"SK-MEL-28, 4 µM",58%
"CAAGCTTTCATTTGGG (sugars k3 d10 k3, PS)",target mRNA inhibition,"SK-MEL-28, 4 µM",74%
"AGTGACTTGCATCCAT (sugars kddddddddddkekek, PS)",target mRNA inhibition,"MM.1R, 1 µM",2%
"GCATGTTCCTCAAAGC (sugars k3 d10 k3, PS)",target mRNA inhibition,"SK-MEL-28, 4 µM",76%
"CTCTATAGTGTTCCAG (sugars kkdddddddddkekek, PS)",target mRNA inhibition,"MM.1R, 1 µM",22%
"TGGCGGAGCATCAACA (sugars k3 d10 k3, PS)",target mRNA inhibition,"SK-MEL-28, 4 µM",37%
"GGATTGATGTGATAGC (sugars k3 d10 k3, PS)",target mRNA inhibition,"MM.1R, 0.0625 µM",7% and 24%
same,target mRNA inhibition,"MM.1R, 0.25 µM",24% and 20%
same,target mRNA inhibition,"MM.1R, 1 µM",59% and 60%
same,target mRNA inhibition,"MM.1R, 4 µM",88%
"GTTGTAAATGAGTCGG (sugars kkdddddddddkdkdk, PS)",target mRNA inhibition,"MM.1R, 0.074 µM",34%
same,target mRNA inhibition,"MM.1R, 0.222 µM",45%
same,target mRNA inhibition,"MM.1R, 0.666 µM",64%
same,target mRNA inhibition,"MM.1R, 1 µM",58%
same,target mRNA inhibition,"MM.1R, 2 µM",85%
"ACCTTTACTTCATTCC (sugars k3 d10 k3, PS)",target mRNA inhibition,"SK-MEL-28, 4 µM",64%
"CCTCGCTCAAAGACCA (sugars k3 d10 k3, PS)",target mRNA inhibition,"SK-MEL-28, 4 µM",50%
"GAGGTTGCCGAGATAT (sugars k3 d10 k3, PS)",target mRNA inhibition,"MM.1R, 1 µM",29%
"TTGATGTGATAGCTGA (sugars kkddddddddddkeke, PS)",target mRNA inhibition,"MM.1R, 1 µM",11%
"CACAGGCGCGGACGCA (sugars k3 d10 k3, PS)",target mRNA inhibition,"SK-MEL-28, 4 µM",14%
"AGTTCATGTAAAGTCT (sugars kdddddddddkekeke, PS)",target mRNA inhibition,"MM.1R, 1 µM",29% and 10%
"GAAGAATTTTAGCATC (sugars k3 d10 k3, PS)",target mRNA inhibition,"SK-MEL-28, 4 µM",56%
"TCAGTTTGTGAAGCAT (sugars k2 d9 e3 k2, PS)",target mRNA inhibition,"MM.1R, 1 µM",39%
"TTACAGCATCTAAGGC (sugars k3 d10 k3, PS)",target mRNA inhibition,"SK-MEL-28, 4 µM",21%
"GAAAGGAGGTAGTGGC (sugars k3 d10 k3, PS)",target mRNA inhibition,"SK-MEL-28, 4 µM",23%
"AGACAGACTTCCAAGA (sugars k3 d10 k3, PS)",target mRNA inhibition,"SK-MEL-28, 4 µM",36%
"ACTGTTAAAGCAGCAT (sugars k3 d10 k3, PS)",target mRNA inhibition,"SK-MEL-28, 4 µM",71%
"ATGTGTATTACTCTTA (sugars k3 d10 k3, PS)",target mRNA inhibition,"MM.1R, 1 µM",52% and 49%
"TGAAATGGAGCATCCG (sugars k3 d10 k3, PS)",target mRNA inhibition,"SK-MEL-28, 4 µM",9%
"CCACCTCCATTCTAAC (sugars k3 d10 k3, PS)",target mRNA inhibition,"SK-MEL-28, 4 µM",-15%
"GGCACTACTTCCAAAA (sugars k3 d10 k3, PS)",target mRNA inhibition,"SK-MEL-28, 4 µM",31%
"AAAGATGCCAGAGGGC (sugars k3 d10 k3, PS)",target mRNA inhibition,"SK-MEL-28, 4 µM",23%
"CAAACTATAATTGGCA (sugars k3 d10 k3, PS)",target mRNA inhibition,"SK-MEL-28, 4 µM",53%
"TGCCAGAGGGCAAGAT (sugars k3 d10 k3, PS)",target mRNA inhibition,"SK-MEL-28, 4 µM",2%
"CGTCAAGGAGGCCTGG (sugars k3 d10 k3, PS)",target mRNA inhibition,"SK-MEL-28, 4 µM",43%
"TAGGTGCTTGTTGAAT (sugars k3 d10 k3, PS)",target mRNA inhibition,"SK-MEL-28, 4 µM",50%
"TTCTACAAGGTCTGAG (sugars k3 d10 k3, PS)",target mRNA inhibition,"SK-MEL-28, 4 µM",47%
